Reference: patent US20090136517A1, “COMBINED TREATMENT WITH AN EGFR KINASE INHIBITOR AND AN INHIBITOR OF C-KIT” (priority 2007, published 2009)

Tests used:
[1] = test system: MO7e human leukemia cells; conditions: cited from earlier work
[2] = test system: NCI-H292 tumor xenografts; experiment: Treatment beyond progression model, NCI-H292 tumor xenografts; format: in vivo, female nu/nu CD-1 mice; conditions: H292 xenografts progressing after 32 days of erlotinib; from time of re-sort; n=8 per group
Source text: Many patients with NSCLC who initially respond to erlotinib therapy develop progressive disease within a year of treatment. […] The mechanism for this phenomenon is not currently known. To evaluate this a preclinical model of progressive disease was utilized. This model utilizes the NCI-H292 tumor xenografts which initially respond very well to erlotinib treatment.
To run the preclinical treatment beyond progression studies NCI-H292 cells were harvested from cell culture flasks during exponential cell growth, washed twice with sterile PBS, counted and resuspended in PBS to a suitable concentration before s.c. implantation on the right flank of female nu/nu CD-1 mice. Tumors were established to 200±50 mm^3 in size before randomization into vehicle control or erlotinib treatment groups. […] Each animal was maintained on its designated dosing regimen until its tumor volume from the time of re-sort had doubled.

[3] = test system: H2122 NSCLC tumor xenografts; experiment: Growth of H2122 NSCLC tumor xenografts in mice; format: in vivo, female nu/nu CD-1 mice; conditions: H2122 xenograft, 14th dosing day, single agent 100 mg/kg oral
Protocol: (refrigeration) until dosing. […] Resulting drug was kept at 5° C. (refrigeration) until dosing.

[4] = test system: GEO tumor xenografts; experiment: Treatment beyond progression, GEO model; format: in vivo, female nu/nu CD-1 mice; conditions: GEO xenografts progressing after 15 days of erlotinib; from time of re-sort; n=8 per group
Source text: To run the preclinical treatment beyond progression study GEO cells were harvested from cell culture flasks during exponential cell growth, washed twice with sterile PBS, counted and resuspended in PBS to a suitable concentration before s.c. implantation on the right flank of female nu/nu CD-1 mice. Tumors were established to 200±50 mm^3 in size before randomization into vehicle control or erlotinib treatment groups. […] Each animal was maintained on its designated dosing regimen until its tumor volume from the time of re-sort had doubled.

SMILES | GM-CSF stimulated growth of MO7e cells ([1]; GM-CSF stimulated) | apoptosis of MO7e cells ([1]; Kit ligand-stimulated conditions) | Kit ligand-stimulated growth of MO7e cells ([1]; Kit ligand-stimulated) | time to tumor doubling [2] | tumor volume as percent of the initial tumor volume [3] | time to tumor doubling [4]
Cc1ccc(NC(=O)c2ccc(CN3CCN(C)CC3)cc2)cc1Nc1nccc(-c2cccnc2)n1 [Gleevec] | not affected | induces apoptosis | inhibited | – | – | –
O=C(Nc1ccc(OC(F)(F)F)cc1)c1sccc1NCc1ccnc2ccccc12 [OSI-930, 3-[(Quinolin-4-ylmethyl)amino]-N-[4-(trifluoromethoxy)phenyl]thiophene-2-carboxamide] | – | – | – | 30 days | ~120% | 23.5 days
C#Cc1cccc(Nc2ncnc3cc(OCCOC)c(OCCOC)cc23)c1 [erlotinib, [6,7-bis(2-methoxyethoxy)-4-quinazolin-4-yl]-(3-ethynylphenyl) amine] | – | – | – | 19.6 days | approximately 250% | 16.7 days
